Reference: patent US20090105235A1, “INSECTICIDAL COMPOSITIONS WITH IMPROVED EFFECT” (Bayer CropScience AG, priority 2005, published 2009)
Where two headings read alike, the source gives them in different places.

Experiments:
Format in all cases: in vivo
Aphis gossypii [1] = assay: Aphis gossypii test (Example A), cotton, spraying upper side of leaf; settings: active compound 24 g/ha, spray volume 600 l/ha
Method: To produce a suitable preparation of active compound, 1 part by weight of active compound is mixed with the stated amounts of solvent and emulsifier, and the concentrate is diluted with water to the desired concentration. If addition of ammonium salts, phosphonium salts or penetrants is required, the appropriate amount is added by pipette after dilution of the respective finished preparation solution.
Single-leaf cotton plants (Gossypium hirsutum) which are heavily infested by the cotton aphid (Aphis gossypii) are treated by spraying of the upper side of the leaf (spray volume 600 l/ha) with the active compound preparation at the desired concentration.
(§1) After the desired period of time, the kill in % is determined. 100% means that all animals have been killed; 0% means that none of the animals have been killed.

Aphis gossypii [2] = assay: Aphis gossypii test (Example E), cotton leaves sprayed; settings: for Kill rate after 6 days, With penetrant and AS: with penetrant and AS (in each case 1000 ppm)
Method: (§2) To produce a suitable preparation of active compound, 1 part by weight of active compound is mixed with the stated amounts of solvent and emulsifier, and the concentrate is diluted with emulsifier-containing water to the desired concentration. If addition of ammonium salts or ammonium salts and penetrant is required, the appropriate amount is added by pipette after dilution of the respective finished preparation solution (in each case 1000 ppm).
Cotton leaves (Gossypium hirsutum) which are heavily infested by the cotton aphid (Aphis gossypii) are sprayed with an active compound preparation at the desired concentration.
After the desired period of time, the kill in % is determined. 100% means that all aphids have been killed; 0% means that none of the aphids have been killed.

Myzus persicae [3] = assay: Myzus persicae test (Example D), bell pepper plants sprayed; settings: for pest or weed control at 0.16 ppm / pest or weed control at 0.8 ppm / pest or weed control at 4 ppm: Myzus persicae, 144 h, read-out: Kill rate after 6 days, Without penetrant and AS; for Kill rate after 6 days, With penetrant and AS: with penetrant and AS (in each case 1000 ppm)
Method: as §2
Bell pepper plants (Capsicum annuum) which are heavily infested by the green peach aphid (Myzus persicaei) are treated by spraying with the active compound preparation at the desired concentration.
as §1

Myzus persicae [4] = assay: Myzus persicae test (Example G), bell pepper, spraying upper side of leaf; settings: active compound 2.4 g/ha
Method: (§3) To produce a suitable preparation of active compound, 1 part by weight of active compound is mixed with the stated amounts of solvent and emulsifier, and the concentrate is diluted with water to the desired concentration. If addition of ammonium salts or ammonium salts and penetrant is required, the appropriate amount is added by pipette after dilution of the respective finished preparation solution (in each case 1000 ppm).
Single-leaf bell pepper plants (Capsicum annuum) which are heavily infested by the green peach aphid (Myzus persicaei) are treated by spraying of the upper side of the leaf with the active compound preparation at the desired concentration.
as §1

Myzus persicae [5] = assay: Myzus persicae test (Example F), bell pepper, spraying underside of leaf; settings: active compound 0.48 g/ha
Method: as §3
Single-leaf bell pepper plants (Capsicum annuum) which are heavily infested by the green peach aphid (Myzus persicaei) are treated by spraying of the underside of the leaf with the active compound preparation at the desired concentration.
as §1

Aphis gossypii [6] = assay: Aphis gossypii test (APHIGO contact) (Example H), cotton, spraying underside of leaf; settings: active compound 0.192 g/ha
Method: as §3
Single-leaf cotton plants (Gossypium hirsutum) which are heavily infested by the cotton aphid (Aphis gossypii) are treated by spraying of the underside of the leaf with the active compound preparation at the desired concentration.
as §1

Aphis gossypii [7] = assay: Aphis gossypii test (APHIGO translaminar) (Example I), cotton, spraying upper side of leaf; settings: active compound 0.192 g/ha
Method: as §3
Single-leaf cotton plants (Gossypium hirsutum) which are heavily infested by the cotton aphid (Aphis gossypii) are treated by spraying of the upper side of the leaf with the active compound preparation at the desired concentration.
as §1

[8] = Aphis gossypii, 144 h, read-out: Kill rate after 6 days, Without penetrant and AS
[9] = active compound 0.16 ppm, 6 days
[10] = active compound 0.8 ppm, 6 days
[11] = with penetrant and AS (in each case 1000 ppm)
[12] = Aphis gossypii, 144 h, active compound 0.16 ppm, without penetrant and AS, 6 days, read-out: Kill rate after 6 days, Without penetrant and AS
[13] = active compound 0.16 ppm, without penetrant and AS, 6 days
[14] = Aphis gossypii, 144 h, active compound 0.8 ppm, without penetrant and AS, 6 days, read-out: Kill rate after 6 days, Without penetrant and AS
[15] = active compound 0.8 ppm, without penetrant and AS, 6 days

## CON/C(=N\[N+](=O)[O-])NCc1cnc(Cl)s1 [(Ib-3)]
Aphis gossypii [1]; with ammonium sulphate 1 g/l
  Kill rate after 3 days, With AS 1 g/l: 99%
Aphis gossypii [1]; without ammonium sulphate
  Kill rate after 3 days, Without AS: 77%

## CN1COCN(Cc2cnc(Cl)s2)/C1=N/[N+](=O)[O-] [Ia-1, thiamethoxam, reference compound]
Aphis gossypii [2]; [8]
  pest or weed control at 0.16 ppm: 0%
Aphis gossypii [2]; [9]
  Kill rate after 6 days, With penetrant and AS: 40%
Myzus persicae [3]
  pest or weed control at 0.16 ppm: 10%
Myzus persicae [3]; [9]
  Kill rate after 6 days, With penetrant and AS: 85%

## CN/C(=N\[N+](=O)[O-])NCc1cnc(Cl)s1 [Ia-2, clothianidin, reference compound]
Myzus persicae [3]
  pest or weed control at 0.8 ppm: 60%
Myzus persicae [3]; [10]
  Kill rate after 6 days, With penetrant and AS: 100%

## N#C/N=C1\SCCN1Cc1ccc(Cl)nc1 [Ia-3, thiacloprid, reference compound]
Aphis gossypii [2]; [8]
  pest or weed control at 0.16 ppm: 0%
Aphis gossypii [2]; [9]
  Kill rate after 6 days, With penetrant and AS: 70%
Myzus persicae [3]
  pest or weed control at 0.16 ppm: 0%
Myzus persicae [3]; [9]
  Kill rate after 6 days, With penetrant and AS: 50%

## CN/C(=N\[N+](=O)[O-])NCC1CCOC1 (stereo not drawn) [Ia-4, dinotefuran, reference compound]
Aphis gossypii [2]; [8]
  pest or weed control at 0.8 ppm: 0%
Aphis gossypii [2]; [10]
  Kill rate after 6 days, With penetrant and AS: 35%
Myzus persicae [3]
  pest or weed control at 4 ppm: 10%
Myzus persicae [3]; active compound 4 ppm, 6 days
  Kill rate after 6 days, With penetrant and AS: 80%

## C/C(=N\C#N)N(C)Cc1ccc(Cl)nc1 [Ia-5, acetamiprid, reference compound]
Myzus persicae [3]
  pest or weed control at 0.16 ppm: 0%
Myzus persicae [3]; [9]
  Kill rate after 6 days, With penetrant and AS: 90%

## CCN(Cc1ccc(Cl)nc1)/C(=C/[N+](=O)[O-])NC [Ia-6, nitenpyram, reference compound]
Aphis gossypii [2]; [8]
  pest or weed control at 0.8 ppm: 25%
Aphis gossypii [2]; [10]
  Kill rate after 6 days, With penetrant and AS: 99%
Myzus persicae [3]
  pest or weed control at 0.8 ppm: 10%
Myzus persicae [3]; [10]
  Kill rate after 6 days, With penetrant and AS: 90%

## O=[N+]([O-])/N=C1\NCCN1Cc1ccc(Cl)nc1 [Ia-7, imidacloprid, reference compound]
Aphis gossypii [2]; [8]
  pest or weed control at 4 ppm: 15%
Aphis gossypii [2]; active compound 4 ppm, 6 days
  Kill rate after 6 days, With penetrant and AS: 95%
Myzus persicae [3]
  pest or weed control at 4 ppm: 40%
Myzus persicae [3]; active compound 4 ppm, 6 days
  Kill rate after 6 days, With penetrant and AS: 100%

## O=[N+]([O-])/N=C1\NCCN1Cc1cnc(Cl)s1 [Ia-8, imidaclothiz, reference compound]
Aphis gossypii [2]; [8]
  pest or weed control at 0.8 ppm: 65%
Aphis gossypii [2]; [10]
  Kill rate after 6 days, With penetrant and AS: 95%

## CN1CN(C)/C(=N\[N+](=O)[O-])N(Cc2cnc(Cl)s2)C1 [Ia-9, AKD-1022]
Aphis gossypii [2]; [8]
  pest or weed control at 0.8 ppm: 80%
Aphis gossypii [2]; [10]
  Kill rate after 6 days, With penetrant and AS: 100%
Myzus persicae [3]
  pest or weed control at 0.8 ppm: 70%
Myzus persicae [3]; [10]
  Kill rate after 6 days, With penetrant and AS: 100%

## C/N=C(\C(=C/N(C)C)[N+](=O)[O-])N(C)Cc1ccc(Cl)nc1 [Ic-1]
Aphis gossypii [2]; [8]
  pest or weed control at 0.8 ppm: 5%
Aphis gossypii [2]; [10]
  Kill rate after 6 days, With penetrant and AS: 60%
Myzus persicae [4]; [11]
  Kill rate after 7 days, With penetrant and AS: 53%
Myzus persicae [4]; without penetrant and AS
  Kill rate after 7 days, Without penetrant and AS: 0%
Myzus persicae [5]; [11]
  Kill rate after 7 days, With penetrant and AS: 67%
Myzus persicae [5]; without penetrant and AS
  Kill rate after 7 days, Without penetrant and AS: 0%
Myzus persicae [3]
  pest or weed control at 0.8 ppm: 0%
Myzus persicae [3]; [10]
  Kill rate after 6 days, With penetrant and AS: 95%
Aphis gossypii [6]; [11]
  Kill rate after 7 days, With penetrant and AS: 70%
Aphis gossypii [6]; without penetrant and AS
  Kill rate after 7 days, Without penetrant and AS: 0%

## CN/C(=C\[N+](=O)[O-])C(C)c1ccc(Cl)nc1 (stereo not drawn) [Id-1]
Aphis gossypii [2]; [8]
  pest or weed control at 0.8 ppm: 0%
Aphis gossypii [2]; [10]
  Kill rate after 6 days, With penetrant and AS: 55%
Myzus persicae [3]
  pest or weed control at 0.8 ppm: 0%
Myzus persicae [3]; [10]
  Kill rate after 6 days, With penetrant and AS: 90%

## O=C/C(=C1/NCCN1Cc1ccc(Cl)nc1)[N+](=O)[O-] [Ie-2]
Aphis gossypii [2]; [8]
  pest or weed control at 0.16 ppm: 10%
Aphis gossypii [2]; [9]
  Kill rate after 6 days, With penetrant and AS: 95%
Myzus persicae [3]
  pest or weed control at 0.16 ppm: 10%
Myzus persicae [3]; [9]
  Kill rate after 6 days, With penetrant and AS: 95%

## CN(Cc1ccc(Cl)nc1)C1=CC(=O)OC1 [If-1]
Aphis gossypii [2]; [12]
  pest or weed control at 0.16 ppm: 30%
Aphis gossypii [2]; [9]
  Kill rate after 6 days, With penetrant and AS: 75%
Aphis gossypii [7]; [11]
  Kill rate after 7 days, With penetrant and AS: 70%
Aphis gossypii [7]; without penetrant and AS
  Kill rate after 7 days, Without penetrant and AS: 0%
Myzus persicae [3]; [13]
  pest or weed control at 0.16 ppm: 20%
Myzus persicae [3]; [9]
  Kill rate after 6 days, With penetrant and AS: 85%

## O=C1C=C(NCc2ccc(Cl)nc2)CO1 [If-2]
Aphis gossypii [2]; [12]
  pest or weed control at 0.16 ppm: 0%
Aphis gossypii [2]; [9]
  Kill rate after 6 days, With penetrant and AS: 50%
Myzus persicae [3]; [13]
  pest or weed control at 0.16 ppm: 0%
Myzus persicae [3]; [9]
  Kill rate after 6 days, With penetrant and AS: 50%

## C=CCN(CCN/C(=C/[N+](=O)[O-])SC)Cc1ccc(Cl)nc1 [Ih-1]
Aphis gossypii [2]; [14]
  pest or weed control at 0.8 ppm: 5%
Aphis gossypii [2]; [10]
  Kill rate after 6 days, With penetrant and AS: 95%
Myzus persicae [3]; [15]
  pest or weed control at 0.8 ppm: 20%
Myzus persicae [3]; [10]
  Kill rate after 6 days, With penetrant and AS: 98%

## C#CCN(CCN/C(=C/[N+](=O)[O-])OC)Cc1ccc(Cl)nc1 [Ih-2]
Aphis gossypii [2]; [14]
  pest or weed control at 0.8 ppm: 65%
Aphis gossypii [2]; [10]
  Kill rate after 6 days, With penetrant and AS: 90%
Myzus persicae [3]; [15]
  pest or weed control at 0.8 ppm: 80%
Myzus persicae [3]; [10]
  Kill rate after 6 days, With penetrant and AS: 98%

## C#CCN(CCN/C(=N/[N+](=O)[O-])OC)Cc1ccc(Cl)nc1 [Ih-3]
Aphis gossypii [2]; [14]
  pest or weed control at 0.8 ppm: 15%
Aphis gossypii [2]; [10]
  Kill rate after 6 days, With penetrant and AS: 55%

## CS/C(=N\[N+](=O)[O-])NCCN(Cc1ccc(Cl)nc1)CC1CC1 [Ih-4]
Aphis gossypii [2]; [14]
  pest or weed control at 0.8 ppm: 15%
Aphis gossypii [2]; [10]
  Kill rate after 6 days, With penetrant and AS: 45%
